Measured values published in ChEMBL document CHEMBL1201862, “PubChem BioAssay data set” (2004).
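Assay format: 96-well plates, 48-hour exposure. Here, GI50 denotes the concentration required for 50% inhibition of growth.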 Calls of active or inactive are those of the source. Rule as the data show it: active = GI50 up to about 1.1 µM and inactive = higher.

Key:
Assay in all cases: NCI anticancer screen, dose series, 48 h
NCI/ADR-RES = test system: NCI/ADR-RES
SF-539 = test system: SF-539
SF-295 = test system: SF-295
HOP-92 = test system: HOP-92
U-251 = test system: U-251
786-0 = test system: 786-0
SNB-75 = test system: SNB-75
DU-145 = test system: DU-145
UACC-257 = test system: UACC-257
NCI-H522 = test system: NCI-H522
SK-MEL-2 = test system: SK-MEL-2
NCI-H226 = test system: NCI-H226
A498 = test system: A498
MDA-MB-231 = test system: MDA-MB-231
NCI-H23 = test system: NCI-H23
UO-31 = test system: UO-31
SK-OV-3 = test system: SK-OV-3
SN12C = test system: SN12C
ACHN = test system: ACHN
MOLT-4 = test system: MOLT-4

Measured: GI50

CN(CCN)[C@H](CSSC[C@@H](c1ccccc1O)N(C)CCN)c1ccccc1O
inactive: NCI/ADR-RES 6.1 µM | SF-539 15.1 µM | SF-295 6.85 µM | HOP-92 17.7 µM | U-251 15.9 µM | 786-0 7.57 µM | SNB-75 14.7 µM | DU-145 14.8 µM | UACC-257 14.9 µM | NCI-H522 16.5 µM | SK-MEL-2 14.6 µM | NCI-H226 11.7 µM | A498 20.2 µM | MDA-MB-231 8.81 µM | NCI-H23 13.8 µM | UO-31 10.1 µM | SK-OV-3 11.7 µM | SN12C 9.48 µM | ACHN 10.1 µM | MOLT-4 4.73 µM

c1ccc(-c2cc3[nH]c4ccccc4[nH]c-3cc(-c3ccccc3)nn2)cc1
inactive: NCI/ADR-RES > 100 µM | SF-539 39.6 µM | SF-295 24.4 µM | HOP-92 > 100 µM | U-251 55.6 µM | 786-0 29.2 µM | SNB-75 30.4 µM | DU-145 52.7 µM | UACC-257 > 100 µM | NCI-H522 71 µM | SK-MEL-2 > 100 µM | NCI-H226 45.6 µM | A498 22.8 µM | MDA-MB-231 80 µM | NCI-H23 > 100 µM | UO-31 21.3 µM | SK-OV-3 17.7 µM | SN12C > 100 µM | ACHN 24.9 µM | MOLT-4 > 100 µM

CCOP(=O)(OCC)/C(C#N)=C/c1cnc[nH]1
inactive: NCI/ADR-RES > 100 µM | SF-539 > 100 µM | SF-295 > 100 µM | HOP-92 > 100 µM | U-251 > 100 µM | 786-0 > 100 µM | SNB-75 > 100 µM | DU-145 > 100 µM | UACC-257 > 100 µM | NCI-H522 > 100 µM | SK-MEL-2 > 100 µM | NCI-H226 > 100 µM | A498 > 100 µM | MDA-MB-231 > 100 µM | NCI-H23 > 100 µM | UO-31 > 100 µM | SK-OV-3 > 100 µM | SN12C > 100 µM | ACHN > 100 µM | MOLT-4 > 100 µM

COC(=O)c1cc(C)ccc1C1CN=NC12Cc1ccc(C)cc1C2=O (stereo not given)
inactive: NCI/ADR-RES 28.5 µM | SF-539 60.4 µM | SF-295 38 µM | HOP-92 19.1 µM | U-251 44.7 µM | 786-0 > 100 µM | SNB-75 30.3 µM | DU-145 82.8 µM | UACC-257 34.3 µM | NCI-H522 32.6 µM | SK-MEL-2 57.9 µM | NCI-H226 24.8 µM | A498 29.5 µM | MDA-MB-231 63.8 µM | NCI-H23 34 µM | UO-31 27.7 µM | SK-OV-3 38.1 µM | SN12C 44.9 µM | ACHN 38.6 µM | MOLT-4 23.1 µM
